Source: PMC6364417, “Kinase inhibitor library screening identifies synergistic drug combinations effective in sensitive and resistant melanoma cells” (Journal of Experimental & Clinical Cancer Research : CR, 2019)

Tests used:
Assay in all cases: Kinase inhibitor library screening, PrestoBlue cell viability, 1 or 10 μM, 72 h
501Mel cells (parental) = conditions: 72 h
Procedure, shortened: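 Values are % viability versus untreated wells, measured by PrestoBlue after a 72 h drug exposure. Screens covered the parental line plus sublines rendered resistant to Vemurafenib or Dabrafenib, each analysed in at least duplicate.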

[1] = test system: 501Mel-GP cells (Dabrafenib-resistant); conditions: 72 h
[2] = test system: 501Mel-XP cells (Vemurafenib-resistant); conditions: 72 h
A375 cells (parental) = test system: A375 cells (parental)
[3] = test system: A375-GP cells (Dabrafenib-resistant)
[4] = test system: A375-XP cells (Vemurafenib-resistant)
IGR37 cells (parental) = test system: IGR37 cells (parental)
[5] = test system: IGR37-GP cells (Dabrafenib-resistant)
[6] = test system: IGR37-XP cells (Vemurafenib-resistant)
[7] = IGR37 Parental, 10μΜ, 72 h, in %

C=CC(=O)Nc1cccc(Oc2nc(Nc3ccc(N4CCN(C)CC4)cc3OC)ncc2Cl)c1 [WZ4002]
viability at 1 µM (501Mel cells (parental); Homo sapiens, read-out: cell viability, 501Mel Parental, 1μΜ): 107% | viability at 10 µM (501Mel cells (parental); Homo sapiens, read-out: cell viability, 501Mel Parental, 10μΜ): -0.0492% | viability at 1 µM ([1]; Homo sapiens, read-out: cell viability, 501Mel GP, 1μΜ): 109% | viability at 10 µM ([1]; Homo sapiens, read-out: cell viability, 501Mel GP, 10μΜ): -0.074% | viability at 1 µM ([2]; Homo sapiens, read-out: cell viability, 501Mel XP, 1μΜ): 104% | viability at 10 µM ([2]; Homo sapiens, read-out: cell viability, 501Mel XP, 10μΜ): -0.3% | viability at 1 µM (A375 cells (parental); Homo sapiens, A-375, 72 h, read-out: cell viability, A375 Parental, 1μΜ): 103% | viability at 10 µM (A375 cells (parental); Homo sapiens, A-375, 72 h, read-out: cell viability, A375 Parental, 10μΜ): 23.8% | viability at 1 µM ([3]; Homo sapiens, A-375, 72 h, read-out: cell viability, A375 GP, 1μΜ): 96.3% | viability at 10 µM ([3]; Homo sapiens, A-375, 72 h, read-out: cell viability, A375 GP, 10μΜ): 3.9% | viability at 1 µM ([4]; Homo sapiens, A-375, 72 h, read-out: cell viability, A375 XP, 1μΜ): 104% | viability at 10 µM ([4]; Homo sapiens, A-375, 72 h, read-out: cell viability, A375 XP, 10μΜ): 6% | viability at 1 µM (IGR37 cells (parental); Homo sapiens, IGR-37, 72 h, read-out: cell viability, IGR37 Parental, 1μΜ): 101% | viability at 10 µM (IGR37 cells (parental); Homo sapiens, IGR-37, 72 h, read-out: cell viability, IGR37 Parental, 10μΜ): 2% | viability at 1 µM ([5]; Homo sapiens, IGR-37, 72 h, read-out: cell viability, IGR37 GP, 1μΜ): 91.8% | viability at 10 µM ([5]; Homo sapiens, IGR-37, 72 h, read-out: cell viability, IGR37 GP, 10μΜ): 16.7% | viability at 1 µM ([6]; Homo sapiens, IGR-37, 72 h, read-out: cell viability, IGR37 XP, 1μΜ): 85.2% | viability at 10 µM ([6]; Homo sapiens, IGR-37, 72 h, read-out: cell viability, IGR37 XP, 10μΜ): 1.4%

C=CC(=O)Nc1cccc(Sc2nc(Nc3ccc(N4CCN(C)CC4)cc3)ncc2Cl)c1 [WZ8040]
cell viability, 501Mel Parental, 1μΜ (501Mel cells (parental); 501Mel Parental, 1μΜ, in %): 98.5 | cell viability, 501Mel Parental, 10μΜ (501Mel cells (parental); 501Mel Parental, 10μΜ, in %): -0.212 | cell viability, 501Mel GP, 10μΜ ([1]; 501Mel GP, 10μΜ, in %): 0.0662 | cell viability, 501Mel XP, 1μΜ ([2]; 501Mel XP, 1μΜ, in %): 96.4 | cell viability, 501Mel XP, 10μΜ ([2]; 501Mel XP, 10μΜ, in %): 0.0442 | cell viability, A375 Parental, 1μΜ (A375 cells (parental); A375 Parental, 1μΜ, 72 h, in %): 97.5 | cell viability, A375 Parental, 10μΜ (A375 cells (parental); A375 Parental, 10μΜ, 72 h, in %): 1.4 | cell viability, A375 GP, 1μΜ ([3]; A375 GP, 1μΜ, 72 h, in %): 98.2 | cell viability, A375 GP, 10μΜ ([3]; A375 GP, 10μΜ, 72 h, in %): 1.6 | cell viability, A375 XP, 1μΜ ([4]; A375 XP, 1μΜ, 72 h, in %): 104.2 | cell viability, A375 XP, 10μΜ ([4]; A375 XP, 10μΜ, 72 h, in %): 0.5 | cell viability, IGR37 Parental, 10μΜ (IGR37 cells (parental); [7]): 0.328 | cell viability, IGR37 GP, 10μΜ ([5]; IGR37 GP, 10μΜ, 72 h): 2.1% | cell viability, IGR37 GP, 1μΜ ([5]; IGR37 GP, 1μΜ, 72 h, in %): 90.2 | cell viability, IGR37 XP, 10μΜ ([6]; IGR37 XP, 10μΜ, 72 h): 1.2% | cell viability, IGR37 XP, 1μΜ ([6]; IGR37 XP, 1μΜ, 72 h, in %): 79.2

COC[C@H]1OC(=O)c2coc3c2[C@@]1(C)C1=C(C3=O)[C@@H]2CCC(=O)[C@@]2(C)C[C@H]1OC(C)=O [Wortmannin]
Cell viability in kinase inhibitor library screening, 501Mel Parental, 10μΜ (501Mel cells (parental); 501Mel Parental, 10μΜ, in %): 57.2 | Cell viability in kinase inhibitor library screening, 501Mel GP, 1μΜ ([1]; 501Mel GP, 1μΜ, in %): 95.9 | Cell viability in kinase inhibitor library screening, 501Mel GP, 10μΜ ([1]; 501Mel GP, 10μΜ, in %): 51.6 | Cell viability in kinase inhibitor library screening, 501Mel XP, 1μΜ ([2]; 501Mel XP, 1μΜ, in %): 91.1 | Cell viability in kinase inhibitor library screening, 501Mel XP, 10μΜ ([2]; 501Mel XP, 10μΜ, in %): 23.3 | Cell viability in kinase inhibitor library screening, A375 Parental, 10μΜ (A375 cells (parental); A375 Parental, 10μΜ, 72 h): 77.1 | Cell viability in kinase inhibitor library screening, A375 Parental, 1μΜ (A375 cells (parental); A375 Parental, 1μΜ, 72 h): 109.1 | Cell viability in kinase inhibitor library screening, A375 GP, 1μΜ ([3]; A375 GP, 1μΜ, 72 h): 103.2 | Cell viability in kinase inhibitor library screening, A375 GP, 10μΜ ([3]; A375 GP, 10μΜ, 72 h): 72.0 | Cell viability in kinase inhibitor library screening, A375 XP, 10μΜ ([4]; A375 XP, 10μΜ, 72 h): 67.6 | Cell viability in kinase inhibitor library screening, IGR37 Parental, 1μΜ (IGR37 cells (parental); IGR37 Parental, 1μΜ, 72 h, in %): 99.5 | Cell viability in kinase inhibitor library screening, IGR37 Parental, 10μΜ (IGR37 cells (parental); [7]): 76.3 | Cell viability in kinase inhibitor library screening, IGR37 GP, 10μΜ ([5]; IGR37 GP, 10μΜ, 72 h): 22.9% | Cell viability in kinase inhibitor library screening, IGR37 GP, 1μΜ ([5]; IGR37 GP, 1μΜ, 72 h, in %): 97.7 | Cell viability in kinase inhibitor library screening, IGR37 XP, 10μΜ ([6]; IGR37 XP, 10μΜ, 72 h): 26.8% | Cell viability in kinase inhibitor library screening, IGR37 XP, 1μΜ ([6]; IGR37 XP, 1μΜ, 72 h, in %): 96.4

COc1ccc(Cl)c(Nc2nc3ccccc3nc2NS(=O)(=O)c2cccc(NC(=O)C(C)(C)N)c2)c1 [XL147]
Cell viability in kinase inhibitor library screening, 501Mel Parental, 1μΜ (501Mel cells (parental); 501Mel Parental, 1μΜ, in %): 95.0 | Cell viability in kinase inhibitor library screening, 501Mel Parental, 10μΜ (501Mel cells (parental); 501Mel Parental, 10μΜ, in %): 91.9 | Cell viability in kinase inhibitor library screening, 501Mel GP, 10μΜ ([1]; 501Mel GP, 10μΜ, in %): 87.3 | Cell viability in kinase inhibitor library screening, 501Mel XP, 1μΜ ([2]; 501Mel XP, 1μΜ, in %): 93.7 | Cell viability in kinase inhibitor library screening, 501Mel XP, 10μΜ ([2]; 501Mel XP, 10μΜ, in %): 83.3 | Cell viability in kinase inhibitor library screening, A375 Parental, 10μΜ (A375 cells (parental); A375 Parental, 10μΜ, 72 h): 88.5 | Cell viability in kinase inhibitor library screening, A375 Parental, 1μΜ (A375 cells (parental); A375 Parental, 1μΜ, 72 h): 99.8 | Cell viability in kinase inhibitor library screening, A375 GP, 1μΜ ([3]; A375 GP, 1μΜ, 72 h): 91.5 | Cell viability in kinase inhibitor library screening, A375 GP, 10μΜ ([3]; A375 GP, 10μΜ, 72 h): 84.7 | Cell viability in kinase inhibitor library screening, A375 XP, 1μΜ ([4]; A375 XP, 1μΜ, 72 h): 100.4 | Cell viability in kinase inhibitor library screening, A375 XP, 10μΜ ([4]; A375 XP, 10μΜ, 72 h): 100.4 | Cell viability in kinase inhibitor library screening, IGR37 Parental, 10μΜ (IGR37 cells (parental); [7]): 90.5 | Cell viability in kinase inhibitor library screening, IGR37 GP, 10μΜ ([5]; IGR37 GP, 10μΜ, 72 h): 88.3% | Cell viability in kinase inhibitor library screening, IGR37 GP, 1μΜ ([5]; IGR37 GP, 1μΜ, 72 h, in %): 103.8 | Cell viability in kinase inhibitor library screening, IGR37 XP, 10μΜ ([6]; IGR37 XP, 10μΜ, 72 h): 62.4% | Cell viability in kinase inhibitor library screening, IGR37 XP, 1μΜ ([6]; IGR37 XP, 1μΜ, 72 h, in %): 98.4
